Test results taken from PubChem BioAssay AID1963861 (Molecular Pharmacology Branch, DTP, NCI, 2024).

System: 885724-159-R-J1-PDC KRAS PDC multicell spheroid viability
Experiment: Anticancer human tumor 885724-159-R-J1-PDC patient-derived pancreatic adenocarcinoma cell line growth inhibition [KRAS2]
Details: for IC50: curve of first compound; for viability, T/C: stronger effect = lower value
In short: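 Combination screen of spheroid viability in tumor-cell co-cultures with endothelial (HUVEC) and mesenchymal stem cell stroma. Each agent was tested in half-log dilutions, topping at clinical Cmax or at 10 microM without a known Cmax.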

[1] = second compound 0.1 µM, first compound 0.0316 µM
[2] = second compound 0.1 µM, first compound 0.1 µM
[3] = second compound 0.1 µM, first compound 0.316 µM
[4] = second compound 0.1 µM, first compound 1 µM
[5] = second compound 0.1 µM, first compound 3.16 µM
[6] = second compound 0.316 µM, first compound 0.0316 µM
[7] = second compound 0.316 µM, first compound 0.1 µM
[8] = second compound 0.316 µM, first compound 0.316 µM
[9] = second compound 0.316 µM, first compound 1 µM
[10] = second compound 0.316 µM, first compound 3.16 µM
[11] = second compound 1 µM, first compound 0.0316 µM
[12] = second compound 1 µM, first compound 0.1 µM
[13] = second compound 1 µM, first compound 0.316 µM
[14] = second compound 1 µM, first compound 1 µM
[15] = second compound 1 µM, first compound 3.16 µM
[16] = second compound 3.16 µM, first compound 0.0316 µM
[17] = second compound 3.16 µM, first compound 0.1 µM
[18] = second compound 3.16 µM, first compound 0.316 µM
[19] = second compound 3.16 µM, first compound 1 µM
[20] = second compound 3.16 µM, first compound 3.16 µM
[21] = second compound 10 µM, first compound 0.0316 µM
[22] = second compound 10 µM, first compound 0.1 µM
[23] = second compound 10 µM, first compound 0.316 µM
[24] = second compound 10 µM, first compound 1 µM
[25] = second compound 10 µM, first compound 3.16 µM
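Note: spheroids exposed to agents for 7 days before readout.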

CC1COCCN1c1cc(-c2ccnn2C)c2ccnc(-c3ccn[nH]3)c2n1 (stereo not given) + COc1cc2nc(C)nc(NC(C)c3cc(N)cc(C(F)(F)F)c3)c2cc1OC1CCOC1 was tested, and the IC50 (second compound 0.1 µM) was 2.72 µM, the IC50 (second compound 0.316 µM) was > 3.16 µM and the IC50 (second compound 1 µM) was > 3.16 µM. For the same compound, the IC50 (second compound 3.16 µM) was > 3.16 µM, the IC50 (second compound 10 µM) was < 0.01 µM and the viability, T/C (second compound 0.1 µM, first compound 0.01 µM) was 99.4%. For the same compound, the viability, T/C [1] was 91.6%, the viability, T/C [2] was 71.5% and the viability, T/C [3] was 62.5%. For the same compound, the viability, T/C [4] was 49.1%, the viability, T/C [5] was 50.9% and the viability, T/C (second compound 0.316 µM, first compound 0.01 µM) was 101%. The viability, T/C [6] was 94.3%, the viability, T/C [7] was 70% and the viability, T/C [8] was 63%. For the same compound, the viability, T/C [9] was 52%, the viability, T/C [10] was 53.9% and the viability, T/C (second compound 1 µM, first compound 0.01 µM) was 111%. For the same compound, the viability, T/C [11] was 88.4%, the viability, T/C [12] was 73.5% and the viability, T/C [13] was 60.6%. It also gave a viability, T/C [14] of 56%, a viability, T/C [15] of 58.4% and a viability, T/C (second compound 3.16 µM, first compound 0.01 µM) of 97.3%. The viability, T/C [16] was 89.2%, the viability, T/C [17] was 71.3% and the viability, T/C [18] was 61.9%. It also gave a viability, T/C [19] of 59.2%, a viability, T/C [20] of 52.9% and a viability, T/C (second compound 10 µM, first compound 0.01 µM) of 46%. The viability, T/C [21] was 51.7%, the viability, T/C [22] was 49.4% and the viability, T/C [23] was 34.2%. The viability, T/C [24] was 41.9% and the viability, T/C [25] was 32.2%.
CC1OCC2(CCN(c3cnc(Sc4ccnc(N)c4Cl)c(N)n3)CC2)C1N (stereo not given) + COc1cc2nc(C)nc(NC(C)c3cc(N)cc(C(F)(F)F)c3)c2cc1OC1CCOC1 was tested, and the IC50 (second compound 0.1 µM) was > 10 µM, the IC50 (second compound 0.316 µM) was > 10 µM and the IC50 (second compound 1 µM) was > 10 µM. The IC50 (second compound 3.16 µM) was > 10 µM, the IC50 (second compound 10 µM) was < 0.0316 µM and the viability, T/C [1] was 90%. The viability, T/C [2] was 84.8%, the viability, T/C [3] was 76.7% and the viability, T/C [4] was 67.1%. The viability, T/C [5] was 62.1%, the viability, T/C (second compound 0.1 µM, first compound 10 µM) was 53.7% and the viability, T/C [6] was 93.4%. The viability, T/C [7] was 82.7%, the viability, T/C [8] was 73.2% and the viability, T/C [9] was 67.6%. It also gave a viability, T/C [10] of 57.2%, a viability, T/C (second compound 0.316 µM, first compound 10 µM) of 54.7% and a viability, T/C [11] of 83.4%. The viability, T/C [12] was 82.5%, the viability, T/C [13] was 70% and the viability, T/C [14] was 62.7%. It also gave a viability, T/C [15] of 57%, a viability, T/C (second compound 1 µM, first compound 10 µM) of 51.4% and a viability, T/C [16] of 76.5%. It also gave a viability, T/C [17] of 73.1%, a viability, T/C [18] of 69.6% and a viability, T/C [19] of 59%. For the same compound, the viability, T/C [20] was 55.1%, the viability, T/C (second compound 3.16 µM, first compound 10 µM) was 51.6% and the viability, T/C [21] was 22.7%. The viability, T/C [22] was 21.7%, the viability, T/C [23] was 19.5% and the viability, T/C [24] was 13.1%. The viability, T/C [25] was 13.5% and the viability, T/C (second compound 10 µM, first compound 10 µM) was 5.33%.
